Earlier results, collected in patent US20070265329A1, “Methods for the prevention of acute and delayed chemotherapy-induced nausea and vomiting (CINV)” (priority 2006, published 2007).
Read-outs that look alike come from different tables or passages of the source.

What was measured:
[1] = or 7 days
[2] = system: patients following moderately emetogenic chemotherapy
delayed onset CINV = settings: administered twice a day
[3] = system: patients (acute phase CINV); settings: over 24 hours (acute phase); study of 233 patients

SMILES | still detectable in the systemic circulation at [1] | patients who did not vomit or need additional medication for nausea ([2]; days 2-5 following moderately emetogenic chemotherapy) | patients who did not vomit or need additional medication for nausea ([2]; first day following moderately emetogenic chemotherapy) | most common side effects ([2]; patients taking Aloxi) | clearance in cancer patients (compared with normal volunteers) | peak plasma concentrate (oral, 1 mg bid over seven days) | treatment of delayed onset CINV (delayed onset CINV) | complete response (no vomiting, no moderate or severe nausea, no rescue medication) [3]
O=C1c2cccc3c2[C@H](CCC3)CN1[C@@H]1CN2CCC1CC2 [Aloxi®, palonosetron] | ≥ 168 h | 64% | 72% | headache and constipation |  |  |  | 
CN1C2CCCC1CC(NC(=O)c1nn(C)c3ccccc13)C2 (centres unmarked) [Kytril®, granisetron] |  |  |  |  | approximately half that of normal volunteers | 6.0 ng/mL | effective | 81%
